Results reported in patent US5349127A, “Expression of herbicide metabolizing cytochromes P450” (priority 1992, dated 1994).

How the values were obtained:
S. ambofaciens PH3834 = assay: Metabolism of 10001 by strains transformed with pPAT108 (Example 14); type: in vitro ADME, Streptomyces ambofaciens; conditions: substrate 10001 120 ug/ml
Description: (§1) S. griseolus PH2003, S. griseus PH4001, S. ambofaciens PH4002, and S. lividans JI1326 were transformed with the plasmid pPAT108. The transformed S. griseolus strain, PH3826, was cultured for 24 hours in 150 mls of sporulation broth with 5 ug/ml thiostrepton. The transformed S. griseus strain, PH3832, and the transformed S. ambofaciens strain, PH3834, were cultured for 24 hours in 150 mls of trypticase soy broth with 5 ug/ml thiostrepton. The transformed S. lividans strain, PH3822, was similarly cultured in 150 mls of YEME broth with 5 ug/ml thiostrepton. Three hours before harvesting the cells, 50 mls of fresh medium of the same type with 5 ug/ml thiostrepton was added to each culture. The cells from each of the cultures were harvested by centrifugation, washed twice with 50 mMMOPS, pH7.2 and resuspended in five cell volumes of MOPS containing 0.2% glucose and 120 ug/ml of the sulfonylurea 10001. The cell suspensions were incubated at 30° C. with shaking and aliquots were removed at 0.5, 1, 2 and 4 hours. The supernatant of each aliquot was analyzed by HPLC and the concentration of the sulfonylurea compound 10001 and its metabolites 10002 and 10003 were determined.

S. griseus PH3817 = assay: Metabolism of 10001 by strains transformed with pCS325 (Example 15); type: in vitro ADME, Streptomyces griseus; conditions: substrate 10001
Description: as §1
S. griseolus PH2003, S. griseus PH4001, S. ambofaciens PH4002, and S. lividans JI1326 were transformed with the plasmid pCS325. Cells of the transformed strains of S. griseolus PH3809, S. griseus PH3817, S. ambofaciens PH3818, and S. lividans PH3816, were grown and treated as described in Example 14, and the concentrations of the sulfonylurea compound 10001 and its metabolites 10002 and 10003 were determined.

[1] = tested on: S. lividans transformed with pCAO400; assay: Metabolism of 10001 in growing culture, HPLC of supernatant (Example 4); type: in vitro ADME, Streptomyces lividans; conditions: 0.12 mg/ml 10001 in culture
Description: (§2) Herbicides and their metabolites are measured by HPLC as described by Romesser et al., BBRC 140: 650-659 (1986), herein incorporated by reference, except that 0.1% H3 PO4 is used in both solvents. Chromatographic identity and quantitation of the herbicides and their resulting metabolites is determined by comparing them chromatographically with authentic standard compounds. Identity of the resulting metabolites is also confirmed by UV spectroscopy.
(§3) Separate cultures (50 ml) inoculated with S. lividans C37, S. lividans transformed with pCAO400 or S. lividans transformed with pCAO401 in sporulation broth containing 0.12 mg/ml of 10001 were grown with shaking at 30° C. Aliquots (1.5 ml) of each culture were removed at 24, 32, 48 and 56 hours after inoculation and the supernatant of each aliquot was analyzed by HPLC for its concentration of 10001 and its metabolites 10002 or 10003.

[2] = tested on: S. lividans transformed with pCAO401; assay: as above; type: in vitro ADME, Streptomyces lividans; conditions: 0.12 mg/ml 10001 in culture
Description: as §2, §3

S. griseolus PH3826 = assay: Metabolism of 10001 by strains transformed with pPAT108 (Example 14); type: in vitro ADME, Streptomyces griseolus; conditions: substrate 10001 120 ug/ml
Description: as §1

S. lividans PH3822 = assay: as above; type: in vitro ADME, Streptomyces lividans; conditions: substrate 10001 120 ug/ml
Description: as §1

[3] = tested on: S. griseolus ATCC 11796 uninduced; assay: Sulfonylurea metabolism by washed cell suspension (Examples 5-9); type: in vitro ADME, Streptomyces griseolus
Description: as §2
A 100 ml culture of S. griseolus ATCC 11796 in sporulation broth and a 50 ml culture of S. lividans transformed with pCAO400 in YEME broth were prepared and incubated for 24 hours as described. At that time, the S. griseolus culture was split into two 50 ml aliquots into two separate flasks and 25 ml of fresh sporulation broth was added to each and 9 mg of […] was added to one of these cultures to induce cytochrome P450SU1 expression. Fresh YEME broth (25 ml) was added to the S. lividans culture. After an additional 6 hours growth at 30° C., the cells in each culture were harvested as described above, washed twice with MOPS (50 mM, pH 7.2) and recentrifuged. The cell pellets were resuspended in four cell volumes of MOPS (50 mM, pH 7.2) containing 0.2% glucose and about 100 μg/ml of 10004. These cell suspensions were incubated at 30° C. with shaking and aliqouts were taken at 2 and 5.5 hours. The supernatant of each aliquot was analyzed by HPLC and the concentrations of the sulfonylurea compound 10004 and its metabolite 10005 were determined.
S. lividans transformed respectively with pCAO200SU1-FeS-B#9, pCAO200SU#112and pCAO200 were cultured for 36 hours in 400 ml of YEME broth at 30° C. S. griseolus ATCC 11796 was similarly cultured in 400 ml of sporulation broth. Six hours before harvesting the cells, 150 ml of fresh YEME broth was added to the S. lividans cells, and the S. griseolus cells were split into two 200 ml cultures with 100 ml of fresh sporulation broth added to each. 10001 (36 mg) was added to one of the two S. griseolus cultures to induce cytochrome P450SU1. The cells were prepared as described above in Example 5 and the concentrations of the sulfonylurea compound 10006 and its metabolites 10007, 10008 or 10009 were determined.

[4] = tested on: S. griseolus ATCC 11796 induced with 10001; assay: as above; type: in vitro ADME, Streptomyces griseolus

Row | Structure (SMILES) | concentration in supernatant (S. ambofaciens PH3834; 1.0 h) | concentration in supernatant (S. ambofaciens PH3834; 2.0 h) | concentration in supernatant (S. ambofaciens PH3834; 4.0 h) | concentration in supernatant (S. griseus PH3817; 0.5 h) | concentration in supernatant (S. griseus PH3817; 1.0 h) | concentration in supernatant (S. griseus PH3817; 2.0 h) | concentration in supernatant (S. griseus PH3817; 4.0 h) | concentration in supernatant ([1]; 0 h) | concentration in supernatant ([1]; 24 h) | concentration in supernatant ([1]; 32 h) | concentration in supernatant ([1]; 48 h) | concentration in supernatant ([1]; 56 h) | concentration in supernatant ([2]; 0 h) | concentration in supernatant ([2]; 24 h) | concentration in supernatant ([2]; 32 h) | concentration in supernatant ([2]; 48 h) | concentration in supernatant ([2]; 56 h) | concentration in supernatant (S. griseolus PH3826; 0.5 h) | concentration in supernatant (S. griseolus PH3826; 1.0 h) | concentration in supernatant (S. griseolus PH3826; 2.0 h) | also measured
1 | CCOC(=O)c1ccccc1S(=O)(=O)NC(=O)Nc1nc(O)cc(Cl)n1 [compound 10002, N-[(4-chloro-6-hydroxy-pyrimidin-2-yl)aminocarbonyl]-2-ethoxycarbonylbenzenesulfonamide] | 11 µM | 27 µM | 64 µM | 37 µM | 73 µM | 167 µM | 220 µM | 0 µM | 17 µM | 25 µM | 39 µM | 47 µM | 0 µM | 32 µM | 44 µM | 63 µM | 71 µM | 41 µM | 101 µM | 171 µM | concentration in supernatant (S. ambofaciens PH3834; 0.5 h): 6 µM; concentration in supernatant (S. griseolus PH3826; 4.0 h): 189 µM; concentration in supernatant (S. lividans PH3822; 0.5 h): 2 µM; concentration in supernatant (S. lividans PH3822; 1.0 h): 5 µM; concentration in supernatant (S. lividans PH3822; 2.0 h): 10 µM; concentration in supernatant (S. lividans PH3822; 4.0 h): 25 µM
2 | COc1cc(Cl)nc(NC(=O)NS(=O)(=O)c2ccccc2C(=O)O)n1 [compound 10003, N-[(4-chloro-6-methoxy-pyrimidin-2-yol)aminocarbonyl]-2-carboxybenzenesulfonamide] | 6 µM | 14 µM | 33 µM | 3 µM | 7 µM | 16 µM | 23 µM | 0 µM | 16 µM | 22 µM | 28 µM | 29 µM | 0 µM | 26 µM | 36 µM | 46 µM | 48 µM | 22 µM | 58 µM | 97 µM | concentration in supernatant (S. ambofaciens PH3834; 0.5 h): 1 µM; concentration in supernatant ([3]; substrate 10001, 2 h): 14 µM; concentration in supernatant ([3]; substrate 10001, 4 h): 37 µM; concentration in supernatant ([3]; substrate 10001, 6 h): 62 µM; concentration in supernatant ([4]; substrate 10001, 2 h): 76 µM; concentration in supernatant ([4]; substrate 10001, 4 h): 128 µM; concentration in supernatant ([4]; substrate 10001, 6 h): 142 µM; concentration in supernatant (S. griseolus PH3826; 4.0 h): 107 µM; concentration in supernatant (S. lividans PH3822; 0.5 h): 1 µM; concentration in supernatant (S. lividans PH3822; 1.0 h): 3 µM; concentration in supernatant (S. lividans PH3822; 2.0 h): 5 µM; concentration in supernatant (S. lividans PH3822; 4.0 h): 15 µM
3 | COC(=O)c1ccccc1S(=O)(=O)NC(=O)Nc1nc(C)cc(C)n1 [compound 10010, N-[(4,6-dimethylpyrimidin-2-yl)aminocarbonyl]-2-methoxycarbonylbenzenesulfonamide] | – | – | – | – | – | – | – | – | – | – | – | – | – | – | – | – | – | – | – | – | concentration in supernatant ([3]; substrate 10010, 2 h): 70 µM; concentration in supernatant ([3]; substrate 10010, 4 h): 49 µM; concentration in supernatant ([3]; substrate 10010, 6 h): 37 µM; concentration in supernatant ([4]; substrate 10010, 2 h): 40 µM; concentration in supernatant ([4]; substrate 10010, 4 h): 8 µM; concentration in supernatant ([4]; substrate 10010, 6 h): 4 µM
4 | CCOC(=O)c1ccccc1S(=O)(=O)NC(=O)Nc1nc(Cl)cc(OC)n1 [compound 10001, N-[(4-chloro-6-methoxy-pyrimidin-2-yl)aminocarbonyl]-2-ethoxycarbonylbenzenesulfonamide] | 278 µM | 250 µM | 191 µM | 226 µM | 181 µM | 69 µM | 0 µM | 300 µM | 269 µM | 240 µM | 184 µM | 137 µM | 284 µM | 230 µM | 203 µM | 123 µM | 105 µM | 222 µM | 137 µM | 19 µM | concentration in supernatant ([3]; substrate 10001, 2 h): 244 µM; concentration in supernatant ([3]; substrate 10001, 4 h): 167 µM; concentration in supernatant ([3]; substrate 10001, 6 h): 86 µM; concentration in supernatant ([4]; substrate 10001, 2 h): 220 µM; concentration in supernatant ([4]; substrate 10001, 4 h): 36 µM; concentration in supernatant ([4]; substrate 10001, 6 h): 3 µM; concentration in supernatant (S. griseolus PH3826; 4.0 h): 0 µM; concentration in supernatant (S. lividans PH3822; 0.5 h): 294 µM; concentration in supernatant (S. lividans PH3822; 1.0 h): 284 µM; concentration in supernatant (S. lividans PH3822; 2.0 h): 262 µM; concentration in supernatant (S. lividans PH3822; 4.0 h): 232 µM
